One test concerns the target T1, Histamine H3 (Homo sapiens, UniProt Q9Y5N1).
T1 construct: NIMH Psychoactive Drug Screening Program, University of North Carolina at Chapel Hill
The test is described as follows: GPCR functional activity, GloSensor assay (agonist and antagonist mode). It counts as cell-based. The source says:
Supplementary Figure 5. Assessment of GPCR functional activity. GloSensor® assay was
profiles were generously provided by the National Institute of Mental Health’s (NIMH)
Psychoactive Drug Screening Program, (Contract # HHSN-271-2013-00017-C) directed by B.L.
Roth, University of North Carolina at Chapel Hill and Project Officer J. Driscoll at NIMH,
Bethesda, Maryland, USA. Further details available at https://pdspdb.unc.edu/pdspWeb/.
MOR stands for “Opiate µ receptor”. […]
[…] Source data are provided as a

In a further test the target is T2, Adrenergic α2B (Homo sapiens, UniProt P18089).
T2 construct: NIMH Psychoactive Drug Screening Program, University of North Carolina at Chapel Hill
The test is described as follows: Eurofins Panlabs panel, radioligand binding. To be noted: at 10 µM.

The target of another test is T3, Opiate µ receptor (Homo sapiens, UniProt P35372).
T3 construct: Eurofins Panlabs Discovery Services, Taiwan
As to the kind of experiment: Eurofins Panlabs panel, radioligand binding. To be noted: at 10 µM.

The target of the next test is T4, PRDM9 (Homo sapiens, UniProt Q9NQV7).
T4 construct: PRDM9 (amino acids: 195–415)
T4 sequence (Q9NQV7 195-415): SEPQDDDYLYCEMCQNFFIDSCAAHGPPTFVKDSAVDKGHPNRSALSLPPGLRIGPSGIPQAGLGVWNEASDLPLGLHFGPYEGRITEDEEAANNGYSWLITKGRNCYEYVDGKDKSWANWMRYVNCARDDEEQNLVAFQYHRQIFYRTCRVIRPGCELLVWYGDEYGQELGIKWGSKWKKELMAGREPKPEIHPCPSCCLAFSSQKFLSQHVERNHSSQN
As to the kind of experiment: MOA determination: IC50 at varying SAM or peptide concentrations (SPA). The test is classed as biochemical. The source says:
Reactions (in quadruplicates) were initiated by adding SAM and followed by measuring the methyltransferase activity using SPA assay. The determined IC50 values were fitted against the corresponding substrate concentrations. An increase in IC50 values when concentration of peptide was increased indicated a peptide-competitive pattern of inhibition.

Test [1] has as its target T5, PRDM9 (amino acids: 195–415) (Homo sapiens, UniProt Q9NQV7).
T5 construct: PRDM9 (amino acids: 195–415)
T5 sequence (Q9NQV7 195-415): T4 sequence (Q9NQV7 195-415)
As to the kind of experiment: PRDM9 methyltransferase activity assay (3H-SAM scintillation proximity assay). The test is classed as biochemical. To be noted: 100 µM compound. On the technique in general: SPA uses beads or plates that emit light when radiolabelled molecules are held near them.

Several values for one entry are separate records, joined by “and”; a condition that tells them apart may be missing. Equal values may be shown once. Read-outs that look alike come from different tables or passages of the source. A value given as a limit tells only on which side of the number the result lay.

T3 sequence (P35372 whole entry): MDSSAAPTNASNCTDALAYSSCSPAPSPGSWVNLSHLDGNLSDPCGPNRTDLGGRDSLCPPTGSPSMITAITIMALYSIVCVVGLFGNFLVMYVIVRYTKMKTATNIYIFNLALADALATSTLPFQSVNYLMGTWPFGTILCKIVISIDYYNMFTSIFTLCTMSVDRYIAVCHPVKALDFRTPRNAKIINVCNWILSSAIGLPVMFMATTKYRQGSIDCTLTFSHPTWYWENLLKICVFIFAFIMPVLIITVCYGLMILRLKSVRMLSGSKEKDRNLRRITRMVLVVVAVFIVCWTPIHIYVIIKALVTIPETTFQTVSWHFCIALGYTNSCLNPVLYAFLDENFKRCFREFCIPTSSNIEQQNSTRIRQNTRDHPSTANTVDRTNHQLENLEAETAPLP
T2 sequence (P18089 whole entry): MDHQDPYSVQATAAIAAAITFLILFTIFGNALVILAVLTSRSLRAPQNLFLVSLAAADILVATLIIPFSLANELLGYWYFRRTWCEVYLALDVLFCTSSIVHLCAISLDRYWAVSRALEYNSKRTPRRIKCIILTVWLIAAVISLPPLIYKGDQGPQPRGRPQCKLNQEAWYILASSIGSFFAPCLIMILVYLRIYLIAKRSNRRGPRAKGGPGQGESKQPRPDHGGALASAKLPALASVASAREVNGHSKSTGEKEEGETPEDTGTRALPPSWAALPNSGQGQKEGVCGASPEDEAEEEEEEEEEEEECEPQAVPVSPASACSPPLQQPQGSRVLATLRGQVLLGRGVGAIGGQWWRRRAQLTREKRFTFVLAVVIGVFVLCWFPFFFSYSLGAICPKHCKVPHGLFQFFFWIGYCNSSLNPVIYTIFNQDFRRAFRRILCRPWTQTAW
T1 sequence (Q9Y5N1 whole entry): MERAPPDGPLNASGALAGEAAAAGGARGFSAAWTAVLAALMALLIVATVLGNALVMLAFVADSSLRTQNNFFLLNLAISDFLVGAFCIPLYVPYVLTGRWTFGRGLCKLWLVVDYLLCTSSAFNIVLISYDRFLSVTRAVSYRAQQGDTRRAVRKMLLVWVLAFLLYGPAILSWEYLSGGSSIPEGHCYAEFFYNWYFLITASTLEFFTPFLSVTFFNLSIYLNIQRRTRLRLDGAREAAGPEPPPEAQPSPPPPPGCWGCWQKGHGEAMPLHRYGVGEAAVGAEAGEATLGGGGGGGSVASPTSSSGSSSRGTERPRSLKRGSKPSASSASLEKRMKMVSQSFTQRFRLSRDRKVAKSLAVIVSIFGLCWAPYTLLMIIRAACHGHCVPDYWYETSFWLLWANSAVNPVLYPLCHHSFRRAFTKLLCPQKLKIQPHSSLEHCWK

In general, Ki refers to a dissociation constant, usually derived from enzyme kinetics or from competition with a known ligand. What is called IC50 is the concentration that gives 50% inhibition. With `COc1cc(OC)cc(-c2noc(N3CCN(C)C4(CCN(c5ccnc(C)c5)CC4)C3)n2)c1` [MRK-740], the “Functional activity (in words)” value at Histamine H3 is on record as “no functional activity”. In addition, the Binding on Adrenergic α2B and on Opiate µ receptor was more than 50% throughout. Further, on PRDM9 (20 µM peptide, SAM 22 to 350 µM), the “Pattern of PRDM9 inhibition with respect to SAM” value is “uncompetitive pattern”. In addition, the Ki on PRDM9 (20 µM peptide, varying SAM, read-out: Ki, estimated from asymptote of Fig 2d) is approximately 160 nM; on PRDM9 (350 µM SAM, varying H3 1–25 peptide, read-out: Ki, calculated from Y intercept of Fig. 2e) it was 65 ± 6 nM. In addition, the “Pattern of PRDM9 inhibition with respect to peptide (H3 1–25) substrate” value at PRDM9 (350 µM SAM, peptide 1.25 to 20 µM) is given as “competitive pattern of PRDM9 inhibition”. Further, the IC50 at PRDM9 ([H3 1-25]/Km 1.25, Figure 2e, average of replicates, read-out: Average IC50) is 0.0749 µM; on PRDM9 ([H3 1-25]/Km 1.25, Figure 2e, read-out: IC50 (µM), replicates), 0.0747 µM and 0.0785 µM and 0.0703 µM and 0.0762 µM; at PRDM9 ([H3 1-25]/Km 2.5, Figure 2e, average of replicates, read-out: Average IC50), 0.0926 µM; on PRDM9 ([H3 1-25]/Km 2.5, Figure 2e, read-out: IC50 (µM), replicates), 0.0843 µM and 0.0895 µM and 0.0878 µM and 0.109 µM; on PRDM9 ([H3 1-25]/Km 5, Figure 2e, average of replicates, read-out: Average IC50), 0.125 µM; at PRDM9 ([H3 1-25]/Km 5, Figure 2e, read-out: IC50 (µM), replicates) it was 0.129 µM and 0.102 µM and 0.118 µM and 0.151 µM. The 50% inhibitory concentration (IC50) on PRDM9 ([H3 1-25]/Km 10, Figure 2e, average of replicates, read-out: Average IC50) is 0.169 µM; at PRDM9 ([H3 1-25]/Km 10, Figure 2e, read-out: IC50 (µM), replicates), 0.138 µM and 0.151 µM and 0.173 µM and 0.215 µM; on PRDM9 ([H3 1-25]/Km 20, Figure 2e, average of replicates, read-out: Average IC50) it was 0.254 µM; on PRDM9 ([H3 1-25]/Km 20, Figure 2e, read-out: IC50 (µM), replicates) it was 0.228 µM and 0.278 µM and 0.257 µM; at PRDM9 ([SAM]/Km 0.18, Figure 2d, average of replicates, read-out: Average IC50), 0.893 µM; at PRDM9 ([SAM]/Km 0.18, Figure 2d, read-out: IC50 (µM), replicates), 0.838 µM and 0.633 µM and 1.03 µM and 1.07 µM. Further, the IC50 was 0.704 µM at PRDM9 ([SAM]/Km 0.36, Figure 2d, average of replicates, read-out: Average IC50); 0.519 µM and 0.651 µM and 0.615 µM and 1.03 µM on PRDM9 ([SAM]/Km 0.36, Figure 2d, read-out: IC50 (µM), replicates); 0.374 µM on PRDM9 ([SAM]/Km 0.73, Figure 2d, average of replicates, read-out: Average IC50); 0.349 µM and 0.395 µM and 0.369 µM and 0.382 µM on PRDM9 ([SAM]/Km 0.73, Figure 2d, read-out: IC50 (µM), replicates); 0.275 µM on PRDM9 ([SAM]/Km 1.46, Figure 2d, average of replicates, read-out: Average IC50); 0.27 µM and 0.288 µM and 0.249 µM and 0.292 µM at PRDM9 ([SAM]/Km 1.46, Figure 2d, read-out: IC50 (µM), replicates). Further, the IC50 is 0.21 µM on PRDM9 ([SAM]/Km 2.92, Figure 2d, average of replicates, read-out: Average IC50); 0.18 µM and 0.228 µM and 0.197 µM and 0.236 µM on PRDM9 ([SAM]/Km 2.92, Figure 2d, read-out: IC50 (µM), replicates). The “Effect of SAH on PRDM9 inhibition by MRK-740, compared with SAM” value at PRDM9 (increasing SAH in parallel to SAM) is given as “did not have the same effect”.

For the compound `COc1cc(OC)cc(-c2noc(N3CCN(C)C4(CCN(c5ccccc5)CC4)C3)n2)c1` [MRK-740-NC], the “PRDM9-Activity %, single experiments” value in test [1] was 82.7625% and 75.9398%.

These data come from article PMC6917776, “Discovery of a chemical probe for PRDM9” (Nature Communications, 2019).
